{"source": "patent US20140315834A1", "about": "(Medicon Pharmaceuticals, Inc., priority 2012, published 2014)", "key": {"[1]": {"tested_on": "A431", "format": "in vivo, mice", "conditions": "Skin A431 id; Topical, 2 week"}, "[2]": {"tested_on": "AGS", "format": "in vivo, mice", "conditions": "Gastric AGS sc, ip"}, "[3]": {"format": "in vivo, Lewis rats"}, "[4]": {"experiment": "in vivo", "conditions": "mouse"}, "[5]": {"tested_on": "A549", "format": "in vivo, mice", "conditions": "Lung A549 ot, ip"}, "[6]": {"tested_on": "U87 glioblastoma cell line", "experiment": "24-hour growth inhibition of glioblastoma cells", "format": "cell-based", "conditions": "24 h, read-out: 24-h 1c50"}, "[7]": {"tested_on": "U87 glioblastoma cells", "experiment": "Apoptosis by Annexin V-FITC / propidium iodide staining", "format": "cell-based", "conditions": "24 hours; PGIA 4 200 μM, PV 116 40 μM, alone or combined", "experimental": "The potential synergy between PV and PGIA in inhibiting the growth of U87 glioblastoma cells was assessed by isobolographic analysis. After treatment with PV 116 or PGIA 4 alone or in combination for 24 hours, the following as determined: a) cell growth using the MTT assay (Promega, Madison, Wis.) and b) apoptosis by staining with Annexin V-FITC (Invitrogen) and propidium iodide 0.5 μg/ml and analyzing the fluorescence intensity by FACS caliber."}, "[8]": {"tested_on": "U87", "experiment": "U87 glioma sc xenograft", "conditions": "20 mg/kg/d alone × 12 d, ip"}, "[9]": {"experiment": "Hydrolysis of PS in PLLA(10K)-PEG(2K) nanocarrier, control pharmacokinetic experiments", "format": "in vivo", "experimental": "Protection of phospho-NSAIDs from hydrolysis by encapsulation in nanocarriers enhances their anti-cancer efficacy. For example, PS was formulated in a nanocarrier suitable for iv administration [PLLA(10K)-PEG(2K)]. […] Nude mice bearing subcutaneous A549 human lung cancer xenografts were then given intravenously PS 60 mg/kg/d ×2d/week and the equimolar dose of sulindac (40 mg/kg.) Sulindac was ineffective in inhibiting the growth of the xenografts whereas PS was (32% vs. 75%; p<0.012). […] In other words, the anticancer efficacy of PS is not the result of its being metabolized to sulindac (Xie G, et al., Brit J. Pharmacol. 2012; 165:2152-66; Wong et al., J Pharmacol Exp Ther. 2012; 340:422-32)."}, "[10]": {"tested_on": "A549 human lung cancer xenografts", "experiment": "A549 sc xenografts, i.v. PS in nanocarrier vs sulindac", "format": "in vivo, mice", "conditions": "PS in nanocarrier, intravenously 60 mg/kg/d ×2d/week"}, "[11]": {"tested_on": "lung and pancreatic carcinoma (Lewis lung carcinoma)", "experiment": "Efficacy in Ces1c knockout vs wild type mice", "format": "in vivo"}, "[12]": {"tested_on": "platelets", "experiment": "Ex vivo platelet aggregometry, collagen agonist", "format": "in vivo, mice", "conditions": "40% MTD; collagen 1 μg/mL", "experimental": "Platelet aggregation was studied using an Aggregometer (Chrono-Log, Havertown, Pa.). […] Maximum inhibition of aggregation occurred at 1 hour post treatment (FIG. 34)."}, "[13]": {"tested_on": "A549 human lung cancer cells", "experiment": "Aerosol PS in orthotopic GFP-A549 lung cancer model", "format": "in vivo, mice", "conditions": "aerosol 50 mg/mL PS for 8 minutes, treatment group", "experimental": "PS dissolved in ethanol was placed in the baffle and aerosolized with the ultrasonic atomizer. […] The air flow in the system used to deliver by inhalation the test drug to mice was controlled by an inlet air regulator and a vacuum pump which draws air from the system.\nMice received 50 mg/mL PS for 8 minutes. After one week of treatment, 1 million A549 human lung cancer cells stably expressing green fluorescence protein (GFP-A549) were injected into the left lung through a 5 mm incision) was made to the left side of the chest. GFP allows the detection and quantification of these cells. […] Inhalation treatment, suspended for 2 days post-surgery, continued for 6 weeks."}, "[14]": {"tested_on": "AGS human gastric xenografts", "conditions": "nude mice; alone or with esterase inhibitor; cited from earlier work"}, "[15]": {"experiment": "Ferric chloride-induced carotid artery thrombus", "format": "in vivo, mice", "conditions": "oral, 40% of MTD, injury one hour later; FIG. 32B", "experimental": "In this model the carotid artery is briefly exposed to FeCl3 leading to thrombus formation at the site of the injury and occlusion of blood flow. […] Flow rate was then measured for 30 minutes (FIG. 32)."}, "[16]": {"experiment": "Drug levels after inhalation vs oral administration of PS", "format": "in vivo, mice"}, "[17]": {"experiment": "Pharmacokinetics of phospho-sulindac in wild type and Ces1c knockout mice", "format": "in vivo", "conditions": "intraperitoneal and intravenous administration", "source_text": "This is reflected in the enhanced distribution of intact phospho-sulindac in various tissues."}, "[18]": {"tested_on": "MDA", "experiment": "MDA breast sc xenograft", "conditions": "120 mg/kg/d × 22 d, ip"}, "[19]": {"tested_on": "HT-29", "experiment": "HT-29 colon sc xenograft", "conditions": "Colon HT-29 sc; 120 mg/kg/d × 12 d, ip"}, "[20]": {"tested_on": "BT-20", "experiment": "BT-20 breast sc xenograft", "conditions": "Breast BT-20 sc; 120 mg/kg/d × 28 d, ip"}, "[21]": {"tested_on": "HCT116", "experiment": "HCT116 colon xenograft", "conditions": "Colon HCT116 sc; 100 mg/kg/d × 12 d, ip"}, "[22]": {"tested_on": "MCF7", "experiment": "MCF7 breast sc xenograft"}, "[23]": {"experiment": "Ulcerative colitis (IBD), DSS", "conditions": "300 mg/kg/d × 10 d, po"}}, "note": "Where two headings read alike, the source gives them in different places."}
{"compound": "CCOP(=O)(OCC)OCCCCNC(=O)C(C)c1ccc(CC(C)C)cc1", "note": "(stereo not shown) [Compound 1, Phosphoric acid diethyl ester 4-[2-(4-isobutyl-phenyl)-propionylamino]-butyl ester]", "values": [{"measurement": "Reduction", "setting": "[1]", "result": 46, "unit": "%"}, {"measurement": "Reduction", "setting": "[2]; 160 mg/kg/d × 3 week", "result": 34, "unit": "%"}, {"measurement": "Latency, sec Mean ± SEM", "setting": "[3]; Dose 120 mg/kg ip, 30 minutes prior to testing", "result": "23.42 ± 1.16", "unit": "s"}, {"measurement": "MTD at 6 week", "setting": "[4]; nude, ip", "result": 160, "unit": "mg/kg/day"}, {"measurement": "Reduction", "setting": "[5]; 160 mg/kg/d × 6 week", "result": 75, "unit": "%"}]}
{"compound": "CCOP(=O)(OCC)OCC(CNC(=O)C(C)c1ccc(CC(C)C)cc1)OP(=O)(OCC)OCC", "note": "(stereo not shown) [Compound 4, Phospho-Ibuprofen Gylcerol Amide]", "values": [{"measurement": "IC50", "setting": "[6]", "result": 87, "unit": "µM"}, {"measurement": "fold-increase of annexinV (+) cells", "setting": "[7]", "result": 1.8, "unit": "fold"}, {"measurement": "MTD at 12 days", "setting": "[4]; nude, ip", "result": 20, "unit": "mg/kg/day"}, {"measurement": "MTD at 1 week", "setting": "[4]; wt (wild type), po", "result": "> 600", "unit": "mg/kg/day"}, {"measurement": "Reduction", "setting": "[8]", "result": 52, "unit": "%"}]}
{"compound": "CCOP(=O)(OCC)OCCCCOC(=O)CC1=C(C)/C(=C/c2ccc([S+](C)[O-])cc2)c2ccc(F)cc21", "note": "(stereo not shown) [Compound 96, Phospho-Sulindac]", "values": [{"measurement": "PS in nanocarrier hydrolyzed to sulindac", "setting": "[9]", "result": "< 6", "unit": "%"}, {"measurement": "inhibition of growth of xenografts", "setting": "[10]", "result": 75, "unit": "%"}, {"measurement": "Bleeding time", "setting": "150 mg/kg orally, 1 hour after administration", "result": "88 ± 7", "unit": "s"}, {"measurement": "prolongation of the bleeding time", "setting": "treated mice", "result": "no prolongation of the bleeding time"}, {"measurement": "analgesic effect", "setting": "[3]; carboxylic esters, systemic, also topical in a hydrogel", "result": "effective"}, {"measurement": "efficacy against Lewis lung carcinoma (LLC) in Ces −/− mice", "setting": "[11]; 150 mg/kg, i.p., subcutaneous LLC tumors, FIG. 35", "result": "more efficacious"}, {"measurement": "more effective in inhibiting growth of lung and pancreatic carcinoma in Ces1c knockout vs wild type mice", "setting": "[11]; mouse, in vivo", "result": "approximately 2 fold"}, {"measurement": "time of maximum inhibition of aggregation post treatment", "setting": "[12]", "result": 1, "unit": "h"}, {"measurement": "death rate by the end of the study", "setting": "[13]", "result": "less than 10%"}, {"measurement": "inhibition of growth of AGS xenografts", "setting": "[14]", "result": 28, "unit": "%"}, {"measurement": "carotid artery blood flow following injury with FeCl3", "setting": "[15]", "result": "flow rate is maintained"}, {"measurement": "PS levels in plasma", "setting": "[16]; after inhalation or oral gavage", "result": "Undetectable"}, {"measurement": "level of intact PS in the lungs", "setting": "[16]; inhalational 6.5 mg/kg body weight", "result": "> 20", "unit": "nmol/g"}, {"measurement": "total drug levels (PS plus metabolites) in lungs, inhalation compared to oral", "setting": "[16]; inhalational 6.5 mg/kg vs oral 150 mg/kg", "result": "significantly higher"}, {"measurement": "level of intact PS in the lungs", "setting": "[16]; oral 150 mg/kg body weight", "result": "< 2", "unit": "nmol/g"}, {"measurement": "less inactivation in Ces1c knockout mice vs wild type", "setting": "[17]", "result": "approximately 2 fold"}]}
{"compound": "CCCC(CCC)C(=O)Oc1ccc(COP(=O)(OCC)OCC)cc1", "note": "[Compound 116, Phosphovalproic Acid]", "values": [{"measurement": "Reduction", "setting": "[2]; 100 mg/kg/d × 3 week", "result": 81, "unit": "%"}, {"measurement": "fold-increase of annexinV (+) cells", "setting": "[7]", "result": 3.0, "unit": "fold"}, {"measurement": "Reduction", "setting": "[18]", "result": 63, "unit": "%"}, {"measurement": "Reduction", "setting": "[5]; 100 mg/kg/d × 6 week", "result": 80, "unit": "%"}, {"measurement": "Reduction", "setting": "[19]", "result": 40, "unit": "%"}, {"measurement": "Reduction", "setting": "[20]", "result": 37, "unit": "%"}]}
{"compound": "phospho-aspirin glycerol amide [Compound 194]", "values": [{"measurement": "Latency, sec Mean ± SEM", "setting": "[3]; rat, in vivo, ip, 150 mg/kg", "result": "19.92 ± 0.78", "unit": "s"}, {"measurement": "Reduction", "setting": "[21]", "result": 18, "unit": "%"}, {"measurement": "Reduction", "setting": "[22]; 120 mg/kg/d × 29 d, po, prevention", "result": 55, "unit": "%"}, {"measurement": "Reduction", "setting": "[22]; 500 mg/kg/d × 12 d, ip, treatment", "result": "80-100%"}, {"measurement": "Reduction", "setting": "[23]", "result": "30-48%"}]}
